{"source": "patent US11512069B2", "about": "“TLR7/8 antagonists and uses thereof” (Merck Patent GmbH, priority 2016, dated 2022)", "target": "T1, TLR7 (Homo sapiens, UniProt Q9NYK1)", "T1 construct": "expressed in transfected cells; host or cells: HEK cells carrying TLR7 and an NF-kB reporter read with Steady-Glo", "T1 sequence (Q9NYK1 27-1049)": "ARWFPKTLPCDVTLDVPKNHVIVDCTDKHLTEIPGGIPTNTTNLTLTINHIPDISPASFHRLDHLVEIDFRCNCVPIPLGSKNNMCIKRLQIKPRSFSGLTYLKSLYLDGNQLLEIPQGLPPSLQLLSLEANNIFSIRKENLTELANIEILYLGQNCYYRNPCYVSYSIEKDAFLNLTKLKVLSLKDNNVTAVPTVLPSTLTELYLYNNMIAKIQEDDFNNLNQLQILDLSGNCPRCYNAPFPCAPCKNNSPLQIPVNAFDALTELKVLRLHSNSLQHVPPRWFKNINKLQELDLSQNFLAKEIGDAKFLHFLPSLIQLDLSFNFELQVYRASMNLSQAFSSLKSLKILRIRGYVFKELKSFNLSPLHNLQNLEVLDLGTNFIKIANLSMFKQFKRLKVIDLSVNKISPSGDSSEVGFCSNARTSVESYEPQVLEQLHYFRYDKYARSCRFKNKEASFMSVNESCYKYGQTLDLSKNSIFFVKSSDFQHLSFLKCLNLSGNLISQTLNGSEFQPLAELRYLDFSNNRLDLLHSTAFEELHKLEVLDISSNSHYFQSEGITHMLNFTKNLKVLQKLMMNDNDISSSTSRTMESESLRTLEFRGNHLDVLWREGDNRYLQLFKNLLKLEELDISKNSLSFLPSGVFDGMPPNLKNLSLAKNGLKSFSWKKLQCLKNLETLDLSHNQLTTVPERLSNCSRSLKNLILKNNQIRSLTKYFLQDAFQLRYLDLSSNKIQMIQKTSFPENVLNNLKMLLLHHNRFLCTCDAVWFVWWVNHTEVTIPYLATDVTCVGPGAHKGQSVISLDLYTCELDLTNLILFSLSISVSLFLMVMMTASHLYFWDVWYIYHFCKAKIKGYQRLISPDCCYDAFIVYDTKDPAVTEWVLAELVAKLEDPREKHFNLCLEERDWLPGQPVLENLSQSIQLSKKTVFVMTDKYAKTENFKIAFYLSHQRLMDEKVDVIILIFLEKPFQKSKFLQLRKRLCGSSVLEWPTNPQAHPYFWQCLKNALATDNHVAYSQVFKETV", "assay": "HEK Cell Assay (TLR7/NFKb HEK reporter cells, Steady-Glo)", "assay_type": "cell-based", "conditions": "compound 30 min, then R*48 agonist 5 hours, Steady-Glo readout, read-out: Potency", "protocol": "Example 32: HEK Cell Assay\nInto 384 CulturePlates (Corning 3707) was placed 5000 c/w of TLR7/NFKb HEK cells in 30 uL DMEM without Phenil red (gibco #31053) and 10% i.a. FCS and 2 mM L-ZGLutamin. The cells were incubated for 24 h at 37 degrees Celsius, 10% carbon dioxide and 90% relative humidity, 3 uL of controls, standards, and compounds were dispensed to wells, incubated for 30 min then 3 uL of R*48 agonist in 20 mM Hepes was added. After incubation for 5 hours, it was allowed to stand at room temperature for 15 min, 10 uL of Steady-Glo substrate reagent was added and shake assay plate for 5 min at 1500 rpm. The assay plate was allowed to sit for 30 min at room temperature and then read plate on EnVision.", "data": [{"smiles": "C[C@H]1C[C@@H](NC(=O)CC2CC2(F)F)C[C@@H](c2ccc(C#N)c3nccnc23)C1", "note": "(mixture of isomers) [Compound 156, N-[(cis-1,3,5)-3-(8-cyanoquinoxalin-5-yl)-5-methylcyclohexyl]-2-(2,2-difluorocyclopropyl)acetamide]", "values": [{"measurement": "IC50", "value": "1 to 20", "unit": "µM"}]}, {"smiles": "C[C@@H]1C[C@H](c2ccc(C(F)(F)F)c3ncccc23)CN(C(=O)CC2CCN(C)CC2)C1", "note": "(racemic) [Compound 4, cis-2-(1-Methyl-piperidin-4-yl)-1-[3-methyl-5-(8-trifluoromethyl-quinolin-5-yl)-piperidin-1-yl]-ethanone]", "values": [{"measurement": "IC50", "value": "< 1", "unit": "µM"}]}, {"smiles": "CC(C)N1CCC(CC(=O)N2C[C@H](C)C[C@H](c3ccc(C#N)c4ncccc34)C2)CC1", "note": "(racemic) [Compound 19]", "values": [{"measurement": "IC50", "value": "< 1", "unit": "µM"}]}, {"smiles": "C[C@@H]1C[C@H](c2ccc(C#N)c3ncccc23)CN(C(=O)CN2CC3CCC2CN3)C1", "note": "(mixture of isomers) [Compound 116, 5-[(3R,5R)-1-(2-2,5-Diaza-bicyclo[2.2.2]oct-2-yl-acetyl)-5-methyl-piperidin-3-yl]-quinoline-8-carbonitrile]", "values": [{"measurement": "IC50", "value": "< 1", "unit": "µM"}]}, {"smiles": "C[C@H]1C[C@@H](N)C[C@@H](c2ccc(C#N)c3nccnc23)C1", "note": "(racemic) [Compound 120, 8-((S,3R,5R)-3-amino-5-methylcyclohexyl) quinoxaline-5-carbonitrile]", "values": [{"measurement": "IC50", "value": "< 1", "unit": "µM"}]}, {"smiles": "C[C@H]1C[C@@H](NC(=O)CC(C)(C)C)C[C@@H](c2ccc(C#N)c3nccnc23)C1", "note": "(racemic) [Compound 129, N-[(cis-1,3,5)-3-(8-cyanoquinoxalin-5-yl)-5-methylcyclohexyl]-3,3-dimethylbutanamide]", "values": [{"measurement": "IC50", "value": "< 1", "unit": "µM"}]}, {"smiles": "C[C@H]1C[C@@H](NC(=O)CC(C)(C)C)C[C@H](c2ccc(C#N)c3nccnc23)C1", "note": "(racemic) [Compound 130, N-[(1,cis-3,trans-5,cis)-3-(8-cyanoquinoxalin-5-yl)-5-methylcyclohexyl]-3,3-dimethylbutanamide]", "values": [{"measurement": "IC50", "value": "1 to 20", "unit": "µM"}]}, {"smiles": "C[C@H]1C[C@@H](NC(=O)CN(C)C)C[C@@H](c2ccc(C#N)c3nccnc23)C1", "note": "(racemic) [Compound 131, N-[(cis-1,3,5)-3-(8-cyanoquinoxalin-5-yl)-5-methylcyclohexyl]-2-(dimethylamino)acetamide]", "values": [{"measurement": "IC50", "value": "< 1", "unit": "µM"}]}, {"smiles": "C[C@H]1C[C@@H](NC(=O)CN(C)C)C[C@H](c2ccc(C#N)c3nccnc23)C1", "note": "(racemic) [Compound 132, N-[(1,cis-3,trans-5,cis)-3-(8-cyanoquinoxalin-5-yl)-5-methylcyclohexyl]-2-(dimethylamino)acetamide]", "values": [{"measurement": "IC50", "value": "1 to 20", "unit": "µM"}]}, {"smiles": "C[C@H]1C[C@@H](NC(=O)[C@@H](N)C(F)(F)F)C[C@@H](c2ccc(C#N)c3nccnc23)C1", "note": "(racemic) [Compound 143, (2R)-2-amino-N-((cis-1,3,5)-3-(8-cyanoquinoxalin-5-yl)-5-methylcyclohexyl)-3,3,3-trifluoropropanamide]", "values": [{"measurement": "IC50", "value": "1 to 20", "unit": "µM"}]}, {"smiles": "C[C@H]1C[C@@H](NC(=O)[C@H](N)C(F)(F)F)C[C@@H](c2ccc(C#N)c3nccnc23)C1", "note": "(racemic) [Compound 144, (2S)-2-amino-N-((cis-1,3,5)-3-(8-cyanoquinoxalin-5-yl)-5-methylcyclohexyl)-3,3,3-trifluoropropanamide]", "values": [{"measurement": "IC50", "value": "1 to 20", "unit": "µM"}]}, {"smiles": "C[C@H]1C[C@@H](NC(=O)[C@H](N)C(F)(F)F)C[C@H](c2ccc(C#N)c3nccnc23)C1", "note": "(racemic) [Compound 145, (2R)-2-amino-N-((1,cis-3cis-5,trans)-3-(8-cyanoquinoxalin-5-yl)-5-methylcyclohexyl)-3,3,3-trifluoropropanamide]", "values": [{"measurement": "IC50", "value": "1 to 20", "unit": "µM"}]}, {"smiles": "C[C@H]1C[C@@H](NC(=O)[C@@H](N)C(F)(F)F)C[C@H](c2ccc(C#N)c3nccnc23)C1", "note": "(racemic) [Compound 146, (2S)-2-amino-N-((1,cis-3cis-5,trans)-3-(8-cyanoquinoxalin-5-yl)-5-methylcyclohexyl)-3,3,3-trifluoropropanamide]", "values": [{"measurement": "IC50", "value": "1 to 20", "unit": "µM"}]}, {"smiles": "COCCN[C@@H]1C[C@H](C)C[C@@H](c2ccc(C(F)(F)F)c3ncccc23)C1", "note": "(racemic) [Compound 151, (1,trans-3,trans-5,cis)-N-(2-methoxyethyl)-3-methyl-5-(8-(trifluoromethyl)quinolin-5-yl)cyclohexanamine]", "values": [{"measurement": "IC50", "value": "1 to 20", "unit": "µM"}]}, {"smiles": "C[C@H]1C[C@@H](NC(=O)CN2CCCCC2)C[C@@H](c2ccc(C#N)c3nccnc23)C1", "note": "(racemic) [Compound 157, N-[(cis-1,3,5)-3-(8-cyanoquinoxalin-5-yl)-5-methylcyclohexyl]-2-(piperidin-1-yl)acetamide]", "values": [{"measurement": "IC50", "value": "< 1", "unit": "µM"}]}, {"smiles": "C[C@H]1C[C@@H](NC(=O)CN2CCN(C)CC2)C[C@@H](c2ccc(C#N)c3nccnc23)C1", "note": "(racemic) [Compound 158, N-[(cis-1,3,5)-3-(8-cyanoquinoxalin-5-yl)-5-methylcyclohexyl]-2-(4-methylpiperazin-1-yl)acetamide]", "values": [{"measurement": "IC50", "value": "< 1", "unit": "µM"}]}, {"smiles": "COCCN[C@@H]1C[C@H](C)C[C@H](c2ccc(F)c3nccnc23)C1", "note": "(racemic) [Compound 159, (cis-1,3,5)-3-(8-fluoroquinoxaline-5-yl)-N-(2-methoxyethyl)-5-methylcyclohexan-1-amine]", "values": [{"measurement": "IC50", "value": "1 to 20", "unit": "µM"}]}, {"smiles": "C[C@@H]1C[C@H](c2ccc(C(F)(F)F)c3ncccc23)CN(C)C1", "note": "(relative stereo) [Compound 5]", "values": [{"measurement": "IC50", "value": "> 20", "unit": "µM"}]}, {"smiles": "C[C@@H]1C[C@@H](c2ccc(C(F)(F)F)c3ncccc23)CN(C)C1", "note": "(relative stereo) [Compound 6]", "values": [{"measurement": "IC50", "value": "> 20", "unit": "µM"}]}, {"smiles": "C[C@@H]1C[C@H](c2ccc(C(F)(F)F)c3ncccc23)CN(CCO)C1", "note": "(relative stereo) [Compound 7]", "values": [{"measurement": "IC50", "value": "> 20", "unit": "µM"}]}, {"smiles": "C[C@@H]1C[C@@H](c2ccc(C(F)(F)F)c3ncccc23)CN(CCO)C1", "note": "(relative stereo) [Compound 8]", "values": [{"measurement": "IC50", "value": "> 20", "unit": "µM"}]}, {"smiles": "CC(=O)N1C[C@@H](C)C[C@H](c2ccc(C(F)(F)F)c3ncccc23)C1", "note": "(relative stereo) [Compound 9, trans-1-[3-Methyl-5-(8-trifluoromethyl-quinolin-5-yl)-piperidin-1-yl]-ethanone]", "values": [{"measurement": "IC50", "value": "> 20", "unit": "µM"}]}, {"smiles": "CC(=O)N1C[C@H](C)C[C@H](c2ccc(C(F)(F)F)c3ncccc23)C1", "note": "(relative stereo) [Compound 10, cis-1-[3-Methyl-5-(8-trifluoromethyl-quinolin-5-yl)-piperidin-1-yl]-ethanone]", "values": [{"measurement": "IC50", "value": "> 20", "unit": "µM"}]}, {"smiles": "C[C@@H]1C[C@@H](c2ccc(C(F)(F)F)c3ncccc23)CN(C(=O)CCn2cccn2)C1", "note": "(relative stereo) [Compound 13]", "values": [{"measurement": "IC50", "value": "> 20", "unit": "µM"}]}, {"smiles": "C[C@@H]1C[C@H](c2ccc(C(F)(F)F)c3ncccc23)CN(C(=O)Cn2cccn2)C1", "note": "(relative stereo) [Compound 14]", "values": [{"measurement": "IC50", "value": "> 20", "unit": "µM"}]}, {"smiles": "C[C@@H]1C[C@@H](c2ccc(C(F)(F)F)c3ncccc23)CN(C(=O)Cn2cccn2)C1", "note": "(relative stereo) [Compound 15]", "values": [{"measurement": "IC50", "value": "> 20", "unit": "µM"}]}, {"smiles": "C[C@@H]1C[C@H](c2ccc(C(F)(F)F)c3ncccc23)CN(C(=O)CN2CCOCC2)C1", "note": "(relative stereo) [Compound 16]", "values": [{"measurement": "IC50", "value": "> 20", "unit": "µM"}]}, {"smiles": "C[C@@H]1C[C@H](c2ccc(C#N)c3ncccc23)CN(C(=O)Cc2cccnc2)C1", "note": "(relative stereo) [Compound 20]", "values": [{"measurement": "IC50", "value": "> 20", "unit": "µM"}]}, {"smiles": "C[C@@H]1C[C@H](c2ccc(C#N)c3ncccc23)CN(C(=O)CCc2cccnc2)C1", "note": "(relative stereo) [Compound 24]", "values": [{"measurement": "IC50", "value": "> 20", "unit": "µM"}]}, {"smiles": "C[C@@H]1C[C@H](c2ccc(C#N)c3ncccc23)CN(C(=O)CC(F)(F)F)C1", "note": "(relative stereo) [Compound 26]", "values": [{"measurement": "IC50", "value": "> 20", "unit": "µM"}]}, {"smiles": "C[C@@H]1C[C@H](c2ccc(C#N)c3ncccc23)CN(C(=O)CC2CC2)C1", "note": "(relative stereo) [Compound 28, Cis 5-[1-(2-Cyclopropyl-acetyl)-5-methyl-piperidin-3-yl]-quinoline-8-carbonitrile]", "values": [{"measurement": "IC50", "value": "1 to 20", "unit": "µM"}]}, {"smiles": "C[C@@H]1C[C@H](c2ccc(C#N)c3ncccc23)CN(C(=O)CN2CCN(C)CC2)C1", "note": "(relative stereo) [Compound 29]", "values": [{"measurement": "IC50", "value": "< 1", "unit": "µM"}]}, {"smiles": "C[C@@H]1C[C@@H](c2ccc(C#N)c3ncccc23)CN(C(=O)CN2CCN(C)CC2)C1", "note": "(relative stereo) [Compound 30]", "values": [{"measurement": "IC50", "value": "< 1", "unit": "µM"}]}, {"smiles": "C[C@@H]1C[C@H](c2ccc(C#N)c3ncccc23)CN(C(=O)C2CN(C)C2)C1", "note": "(relative stereo) [Compound 31]", "values": [{"measurement": "IC50", "value": "1 to 20", "unit": "µM"}]}, {"smiles": "C[C@@H]1C[C@@H](c2ccc(C#N)c3ncccc23)CN(C(=O)C2CN(C)C2)C1", "note": "(relative stereo) [Compound 32]", "values": [{"measurement": "IC50", "value": "1 to 20", "unit": "µM"}]}]}
